A word on the IC50: it is the concentration that gives 50% inhibition.

In one assay the test system is TNF release. Put plainly: TNF assay: TNF release from LPS-stimulated human PBMCs (TNF ELISA). It counts as cell-based. Particulars: PBMC, read-out: IC50 (TNF assay). The essentials: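 Human PBMCs at 10k/well pretreated with compound dilutions 2 h, then stimulated with LPS (10 ng/mL) for 18 h. TNF in supernatants quantified by ELISA; IC50 for inhibition of TNF release fitted from concentration–response.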
For orientation: ELISA stands for enzyme-linked immunosorbent assay.

Another assay deals with NF-κB. Briefly: NF-κB assay: THP1-NF-κB-LUC cells, LPS-stimulated secreted luciferase. It counts as cell-based. Conditions: THP1-NF-κB-LUC cells, read-out: IC50 (NF-κB assay). The essentials: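 THP1-NF-κB-LUC cells (25k/well) were pretreated with compounds for 2 h, then stimulated with LPS (10 ng/mL) for 18 h. Secreted luciferase was measured and normalized to vehicle, and IC50 was fitted from the concentration series.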

Where [1] appears, read: LPS-stimulated human PBMCs, TNF ELISA.
The mark [2] stands for this setting: human PBMCs, compounds 2 hours before LPS (10 ng/ml) for 18 hours, supernatant TNF ELISA.
[3] abbreviates: compounds 2 hours before LPS (10 ng/mL) for 18 hours, secreted luciferase.

Where two headings read alike, the source gives them in different places. Where only a bound is given, the exact number is not on record here.

With `O=C(O)c1ccc2nc(-c3ccc(F)cc3)c(-c3ccc(F)cc3)nc2c1` [BC19118], the figures for the IC50 with TNF release (setting [1]) and in the assay with NF-κB (LPS-stimulated) were more than 10 µM and 1 to 10 µM, respectively.

For the compound `CC1Oc2cc(S(=O)(=O)NC3CCC(O)CC3)c(Br)cc2NC1=O` (stereo not shown) [BC19360], the IC50 in the assay on TNF release (setting [2]) and in the assay with NF-κB (setting [3]) was more than 10 µM in each case.

Regarding `O=S(=O)(CC1CC1)c1sc(-c2ccccc2F)nc1S(=O)(=O)c1ccc(Cl)cc1` [BC19633], the IC50 in the assay on TNF release (setting [1]) and with NF-κB (LPS-stimulated) was 1 to 10 µM in each case.

For `Cc1ccc(NS(=O)(=O)c2cc(Br)cc3c2OC(CC(C)C)C(=O)N3)cc1Cl` (stereo not shown) [BC19767], the IC50 was more than 10 µM with TNF release (setting [2]) and less than 0.1 µM in the assay on NF-κB (setting [3]).

For `CCS(=O)(=O)c1cc2c(c(S(=O)(=O)Nc3ccc(OC(F)(F)F)cc3)c1)OCC(=O)N2` [BC19435], the IC50 in the assay on TNF release (setting [2]) is more than 10 µM; with NF-κB (setting [3]) it was less than 0.1 µM.

Take `COc1ccc(NS(=O)(=O)c2cc3c(cc2Br)NC(=O)CCO3)cc1Cl` [BC19694]: the IC50 in the assay on TNF release (setting [1]) and in the assay with NF-κB (LPS-stimulated) was more than 10 µM throughout.

Regarding `CC1Oc2c(cc(Br)cc2S(=O)(=O)N2CCN(C)CC2)NC1=O` (stereo not shown) [BC19228], the IC50 in the assay on TNF release (setting [2]) and in the assay on NF-κB (setting [3]) was more than 10 µM throughout.

`C#CCNC(=O)c1ccc2nc(-c3ccc(F)cc3)c(-c3ccc(F)cc3)nc2c1` [BC19154]: the IC50 in the assay with TNF release (setting [1]) is more than 10 µM; with NF-κB (LPS-stimulated) it was less than 0.1 µM.

Consider `CCS(=O)(=O)c1cc2c(c(S(=O)(=O)Nc3ccc(C)c(F)c3)c1)OCC(=O)N2` [BC19436], for which the values for the IC50 in the assay on TNF release (setting [2]) and with NF-κB (setting [3]) were more than 10 µM and less than 0.1 µM, respectively.

As for `CC(C)CS(=O)(=O)c1oc(-c2ccccc2)nc1S(=O)(=O)c1ccc(Cl)cc1` [BC19278], the 50% inhibitory concentration (IC50) with TNF release (setting [1]) and with NF-κB (LPS-stimulated) was less than 0.1 µM throughout.

In the case of `Fc1ccc(-c2nc3cc(-c4nnc[nH]4)ccc3nc2C(F)(F)F)cc1` [BC19111], the IC50 in the assay with TNF release (setting [1]) and with NF-κB (LPS-stimulated) was more than 10 µM throughout.

As to `O=C1CCCN1CCCNS(=O)(=O)c1ccc2nc(-c3ccc(F)cc3)c(-c3ccc(F)cc3)nc2c1` [BC19560], the IC50 with TNF release (setting [1]) was more than 10 µM; with NF-κB (LPS-stimulated), less than 0.1 µM.

`CCC1Oc2c(cc(Cl)cc2S(=O)(=O)Nc2ccccc2)NC1=O` (stereo not shown) [BC19738]: the IC50 is more than 10 µM with TNF release (setting [2]) and less than 0.1 µM with NF-κB (setting [3]).

Turning to `CN1CCN(C(=O)c2ccc3nc(-c4ccc(F)cc4)c(C(F)(F)F)nc3c2)CC1` [BC19110], the IC50 in the assay on TNF release (setting [1]) and in the assay with NF-κB (LPS-stimulated) was more than 10 µM each time.

On to `CN(C)c1cccc(-c2nc3ccc(C(=O)NCCN4CCOCC4)cc3nc2-c2cccc(N(C)C)c2)c1` [BC19501], for which the IC50 with TNF release (setting [1]) and with NF-κB (LPS-stimulated) was more than 10 µM throughout.

As to `CCOc1ccc(NS(=O)(=O)c2cc(Cl)cc3c2OC(C)C(=O)N3)cc1` (stereo not shown) [BC19355], the IC50 in the assay with TNF release (setting [2]) was more than 10 µM; with NF-κB (setting [3]), less than 0.1 µM.

For the compound `CCC1Oc2cc(S(=O)(=O)NCc3ccc(F)cc3F)c(Br)cc2NC1=O` (stereo not shown) [BC19368], the IC50 in the assay with TNF release (setting [2]) and in the assay with NF-κB (setting [3]) was more than 10 µM throughout.

As to `Cn1nnnc1-c1ccc2nc(C(F)(F)F)c(-c3ccc(F)cc3)nc2c1` [BC19112], the IC50 in the assay with TNF release (setting [1]) and in the assay on NF-κB (LPS-stimulated) was more than 10 µM in each case.

On to `O=c1c(S(=O)(=O)c2ccc(F)c(F)c2)c[nH]c2c(Cl)ccc(F)c12` [BC19196], for which the IC50 was more than 10 µM with TNF release (setting [2]) and 0.1 to 1 µM in the assay with NF-κB (setting [3]).

In the case of `CC(C)NS(=O)(=O)c1cc(Cl)cc2c1OC(C)C(=O)N2` (stereo not shown) [BC19293], the IC50 with TNF release (setting [2]) is more than 10 µM; in the assay on NF-κB (setting [3]) it was 0.1 to 1 µM.

For `O=C1CCOc2cc(S(=O)(=O)Nc3ccc(OC(F)(F)F)cc3)c(Br)cc2N1` [BC19652], the IC50 in the assay on TNF release (setting [1]) is more than 10 µM; in the assay with NF-κB (LPS-stimulated) it was 1 to 10 µM.

For `O=c1c(S(=O)(=O)c2ccc(F)c(F)c2)c[nH]c2ccc(Cl)nc12` [BC19122], the IC50 in the assay on TNF release (setting [2]) and in the assay on NF-κB (setting [3]) was more than 10 µM each time.

Turning to `CCc1ccc(NS(=O)(=O)c2cc(Br)cc3c2OC(CC)C(=O)N3C)cc1` (stereo not shown) [BC19931], the IC50 with TNF release (setting [2]) is 1 to 10 µM; in the assay on NF-κB (setting [3]), less than 0.1 µM.

In the case of `COc1ccc(NS(=O)(=O)c2cc(S(C)(=O)=O)cc3c2OCC(=O)N3)cc1Cl` [BC19429], the IC50 with TNF release (setting [2]) and in the assay on NF-κB (setting [3]) was more than 10 µM throughout.

As to `CC(C)CS(=O)(=O)c1oc(-c2ccccc2)nc1S(=O)(=O)c1cccc(F)c1` [BC19270], the IC50 in the assay on TNF release (setting [1]) and with NF-κB (LPS-stimulated) was less than 0.1 µM each time.

Regarding `O=C1CCOc2cc(S(=O)(=O)Nc3cccc(Cl)c3)c(Br)cc2N1` [BC19655], the IC50 in the assay on TNF release (setting [1]) and in the assay on NF-κB (LPS-stimulated) was more than 10 µM in each case.

Consider `CN1CCOc2cc(-c3ccc4nc(-c5ccc(F)cc5)c(-c5ccc(F)cc5)nc4c3)ccc21` [BC19244], for which the IC50 in the assay on TNF release (setting [1]) and in the assay with NF-κB (LPS-stimulated) was more than 10 µM in each case.

For `CC(C)C[S+]([O-])c1sc(-c2ccc(Cl)cc2)nc1S(=O)(=O)c1ccc(F)cc1` (stereo not shown) [BC19593], the IC50 lay within 1 to 10 µM with TNF release (setting [1]) and 0.1 to 1 µM in the assay with NF-κB (LPS-stimulated).

On to `CCc1ccc(NS(=O)(=O)c2cc(S(=O)(=O)CC)cc3c2OCC(=O)N3)cc1` [BC19492], for which the IC50 in the assay on TNF release (setting [2]) was more than 10 µM; in the assay on NF-κB (setting [3]), less than 0.1 µM.

On to `CCCc1nnc(-c2ccc3nc(-c4ccc(F)cc4)c(-c4ccc(F)cc4)nc3c2)[nH]1` [BC19247], for which the figures for the IC50 in the assay on TNF release (setting [1]) and in the assay with NF-κB (LPS-stimulated) were more than 10 µM and 1 to 10 µM, respectively.

In the case of `CC1Oc2c(cc(Br)cc2S(=O)(=O)NCc2ccc(C(F)(F)F)cc2)NC1=O` (stereo not shown) [BC19365], the IC50 in the assay with TNF release (setting [2]) is more than 10 µM; in the assay with NF-κB (setting [3]) it was 1 to 10 µM.

Take `Cn1cnnc1-c1ccc2nc(-c3ccc(F)cc3)c(-c3ccc(F)cc3)nc2c1` [BC19101]: the figures for the concentration for half-maximal inhibition (IC50) with TNF release (setting [1]) and with NF-κB (LPS-stimulated) were more than 10 µM and less than 0.1 µM, respectively.

Consider `Cn1cnnc1-c1ccc2nc(-c3ccc(F)cc3F)c(-c3ccccc3)nc2c1` [BC19444], for which the half-maximal inhibitory concentration (IC50) with TNF release (setting [1]) is more than 10 µM; with NF-κB (LPS-stimulated), 0.1 to 1 µM.

`CCC[S+]([O-])c1oc(-c2ccc(Cl)cc2)nc1S(=O)(=O)c1ccc(Cl)cc1` (stereo not shown) [BC19417]: the half-maximal inhibitory concentration (IC50) is 1 to 10 µM in the assay with TNF release (setting [1]) and 0.1 to 1 µM in the assay on NF-κB (LPS-stimulated).

As for `O=S(=O)(c1cccc(F)c1)c1nc(-c2ccccc2)oc1[S+]([O-])C1CCCCC1` (stereo not shown) [BC19327], the IC50 in the assay on TNF release (setting [1]) and with NF-κB (LPS-stimulated) was 1 to 10 µM each time.

Consider `Cc1nc(C)c(-c2ccc3nc(-c4ccc(F)cc4)c(-c4ccc(F)cc4)nc3c2)s1` [BC19241], for which the figures for the IC50 in the assay on TNF release (setting [1]) and in the assay on NF-κB (LPS-stimulated) were more than 10 µM and 1 to 10 µM, respectively.

In the case of `CCC1Oc2c(cc(Br)cc2S(=O)(=O)Nc2ccc(Cl)cc2)N(C)C1=O` (stereo not shown) [BC19929], the IC50 was 1 to 10 µM in the assay with TNF release (setting [2]) and less than 0.1 µM with NF-κB (setting [3]).

Consider `O=C(NCc1ccncc1)Nc1ccc2nc(-c3ccc(F)cc3)c(-c3ccc(F)cc3)nc2c1` [BC19572], for which the 50% inhibitory concentration (IC50) in the assay with TNF release (setting [1]) was more than 10 µM; in the assay with NF-κB (LPS-stimulated), 0.1 to 1 µM.

Regarding `N#Cc1ccc2nc(-c3cccs3)c(-c3ccc(F)cc3)nc2c1` [BC19157], the IC50 in the assay with TNF release (setting [1]) and in the assay with NF-κB (LPS-stimulated) was more than 10 µM in each case.

For `CCCS(=O)(=O)c1sc(-c2ccc3ccccc3c2)nc1S(=O)(=O)c1ccc(Cl)cc1` [BC19674], the IC50 is more than 10 µM with TNF release (setting [1]) and 1 to 10 µM in the assay on NF-κB (LPS-stimulated).

Turning to `CC1Oc2cc(S(=O)(=O)Nc3ccc(F)cc3Cl)c(Br)cc2N(C)C1=O` (stereo not shown) [BC19907], the IC50 in the assay with TNF release (setting [2]) and with NF-κB (setting [3]) was more than 10 µM in each case.

`CC(C)S(=O)(=O)c1oc(-c2ccccc2)nc1S(=O)(=O)c1cccc(F)c1` [BC19269]: the IC50 with TNF release (setting [1]) is less than 0.1 µM; in the assay with NF-κB (LPS-stimulated), 0.1 to 1 µM.

`CCCS(=O)(=O)c1oc(-c2ccccc2)nc1S(=O)(=O)c1ccc(F)c(F)c1` [BC19273]: the IC50 in the assay on TNF release (setting [1]) and in the assay on NF-κB (LPS-stimulated) was 0.1 to 1 µM throughout.

For `COc1ccc(NS(=O)(=O)c2cc3c(cc2Br)NC(=O)CO3)cc1Cl` [BC19163], the half-inhibitory concentration (IC50) with TNF release (setting [2]) and with NF-κB (setting [3]) was more than 10 µM each time.
